In assay [1] the test system is Lewis lung carcinoma cells. As to the kind of experiment: Inhibition of tumor volume increase, Lewis lung carcinoma in mice. The following applies: 0.5 mg/mouse intraperitoneally, 2 weeks. Format: in vivo, BDF-1 male mice. Here is the method:
To determine the inhibitory effect on the volumetric increase of cancer cell, following experiment was performed by modifying the procedure disclosed in the literature (Teruhiro et al., Cancer Res., 56, pp 2809-14, 1996).
Lewis lung carcinoma cells (1×10^6 cells/well) which had been sub-cultured in vivo of experimental mouse and adjusted the concentration to 1×10^6 cells/well, was injected into the left armpit of BDF-1 male mice (6-week-old). After 24 hours, adriamycin in the concentration of 0.5 and 1 mg/mouse, and the extracts prepared in Comparative Example 1, 2 and Example 1, 2 in the concentration of 50 and 100 μl/mouse were injected into the mice intraperitoneally. The injection of samples was maintained for 2 weeks until the tumor volume of non-treatment group used as control group become to 2 cm^3. After 2 weeks, the tumor volume was calculated by using following mathematical formulae 1 and 2 to measure the inhibition rate of tumor volume.
[formula] L (cm): Length of the tumor W^2 (cm^2): Width of the tumor
[formula] A: Tumor volume (cm^3) of control group B: Tumor volume (cm^3) of sample treatment group

In assay [2] the test system is U937 cells (human leukemia cell line). As to the kind of experiment: MTT cell cytotoxicity on U937 cells. Format: cell-based. As to conditions: U-937, 48 hours, adriamycin, read-out: IC50, cytotoxic effect on U937 cells. Here is the method:
(§1) U937 cells (human leukemia cell line), A549 cells (human lung cancer cell line) and MDA-MB-231 (human breast cancer cell line) cells were grown on the culture dish having 100 mm diameter (TPP Co., Ltd., Switzerland) in RPMI1640 (Gibco BRL Co., Ltd., USA), supplemented with 10% fetal bovine serum which was inactivated at 37° C. in 5% CO2 and 95% air condition in a humidified incubator. […] Cells on […] culture dish were treated with 500 μl of trypsin-EDTA (Gibco BRL Co., Ltd., U.S.A.) to separate from the dish and 10 ml of fresh medium was added thereto so as to neutralize trypsin-EDTA solution and obtain cell suspension. 1×10^4 cells/well were seeded in 96-well plate and after 24 hours incubation. […] The plate was incubated for 20 minutes at room temperature and then UV absorbance the samples was measured by microplate reader (ELISA reader, DENLEY Co., Japan) to calculate the cell viability at 570 nm. The cell viability rate of negative control group treated with only medium was calculated as a 100% and those of other sample and positive control were calculated. […] The measured absorbance showing the reduced amount of existing cellular enzyme in MTT was proportioned to survival cell density. […]

Assay [3] has as its system A549 cells (human lung cancer cell line). As to the kind of experiment: MTT cell cytotoxicity on A549 cells. Format: cell-based. As to conditions: 48 hours, adriamycin, read-out: IC50, cytotoxic effect on A549 cells (text, printed A5497). The protocol:
as §1

A further assay relates to splenic leucocytes. Description: Immunostimulating effect on splenic leucocytes (flow cytometry). As to conditions: 3 days. Format: cell-based, BALB c mouse. The protocol:
To determine the immunostimulating effect of the extract of the present invention, splenic leucocytes (1×10^6 cells/ml) of BALB c mouse were suspended in RPMI1640 medium (Gibco BRL Co., Ltd., USA) supplemented with 100 μg/ml of streptomycin, 100 U/ml of penicillin and 10% fetal bovine serum, and treated with 200 μl/ml of the extracts of Comparative Example 1, 2 and Example 1, 2, respectively. The solution was incubated at 37° C. in 5% CO2 and 95% air condition in a humidified incubator for 3 days and the formation of leucocytes was determined by Flow cytometry. 200 μg/ml of adriamycin treatment group was used as control group.

For assay [4], the system named is MDA-MB-231 (human breast cancer cell line). As to the kind of experiment: MTT cell cytotoxicity on MDA-MB-231 cells. Format: cell-based. The following applies: 48 hours, adriamycin, read-out: IC50, cytotoxic effect on MDA-MB-231 cells. The protocol: as §1

Structures are written as SMILES. ≈ marks a conversion by molar mass, not a printed value.

On to `COc1cccc2c1C(=O)c1c(O)c3c(c(O)c1C2=O)C[C@@](O)(C(=O)CO)C[C@@H]3O[C@H]1C[C@H](N)[C@H](O)[C@H](C)O1` [Adriamycin, adriamycin], for which the “Inhibition effect (%) on tumor volume” value in assay [1] is 31.20 ± 8.05%. For the same compound, the IC50 in assay [2], in assay [3] and in assay [4] was 3 µg/mL (≈ 5.52 µM) each time. Further, the “Decrease of immunity” value with splenic leucocytes (200 μg/ml adriamycin) is listed as 26.1%. For the same compound, in the assay with splenic leucocytes (concentration 200 μg/ml), the “Increase rate of lymphocyte (%)” value is −21.6%.

These data come from patent US7744936B2, “Method for preparing extract from wild ginseng showing anticancer activity and the composition comprising the same” (Seocksanteo Medical Co., Ltd., priority 2004, dated 2010).
